Measured values from patent publication US4015974A, “Amido phosphorothiolates” (priority 1972, dated 1977).

Legend:
Format in all cases: in vivo
nematode = assay: Effect on nematode (Table 7); parameters: tested at 500 ppm; settings: 500 p.p.m., 24 hours
Procedure: 0.5 ml. of a nematode-containing aqueous solution separated from food according to Baermann's method was placed in a test tube with ground stopper containing 0.5 ml. of an aqueous dilute solution of each emulsifiable concentrates of the present compounds. The concentration of the active ingredient in the mixture was adjusted to 500 p.p.m. After 24 hours, the death and alive were observed microscopically to calculate the mortality.

[1] = tested on: barnyard grass (Echinochloa crus-galli); assay: Water application, herbicidal effect on barnyard grass (Table 2); parameters: key: 0: not damaged; 5: completely killed; settings: 25 days, score 0-5
How it was run: (§1)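 Flooded paddy soil, 3-leaf rice transplants, sown barnyard grass, spontaneous broadleaf weeds; WP formulation, water-lodged soil application; 0–5 visual rating, day 25.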

[2] = tested on: redroot pigweed (Amaranthus retroflexus); assay: Pre-emergence application, herbicidal effect on redroot pigweed (Table 1); parameters: key: 0: not damaged; 5: completely killed; settings: 20 days after application, score 0-5
How it was run: (§2)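 Steps: sow seeds individually in pots about 10 cm across; cover with soil; apply test compound as water-diluted wettable powder to the soil; grow in greenhouse; rate herbicidal effect at day 20 on a 0–5 scale (5 = completely killed).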

[3] = tested on: large crabgrass (Digitaria sanguinalis); assay: Pre-emergence application, herbicidal effect on large crabgrass (Table 1); parameters: key: 0: not damaged; 5: completely killed; settings: 20 days after application, score 0-5
How it was run: as §2

[4] = tested on: barnyard grass (Echinochloa crus-galli); assay: Pre-emergence application, herbicidal effect on barnyard grass (Table 1); parameters: key: 0: not damaged; 5: completely killed; settings: 20 days after application, score 0-5
How it was run: as §2

rice = assay: Water application, phytotoxicity on rice (Table 2); parameters: key: 0: no effect; 1: very slightly affected; 2: slightly affected; 3: moderately affected; 4: considerably affected; 5: completely killed; settings: 25 days, score 0-5
How it was run: as §1

[5] = tested on: common lambsquarter (Chenopodium album); assay: Pre-emergence application, herbicidal effect on common lambsquarter (Table 1); parameters: key: 0: not damaged; 5: completely killed; settings: 20 days after application, score 0-5
How it was run: as §2

[6] = tested on: common purslane (Portulaca oleracea); assay: Pre-emergence application, herbicidal effect on common purslane (Table 1); parameters: key: 0: not damaged; 5: completely killed; settings: 20 days after application, score 0-5
How it was run: as §2

radish = assay: Pre-emergence application, herbicidal effect on radish (Table 1); parameters: key: 0: not damaged; 5: completely killed; settings: 20 days after application, score 0-5
How it was run: as §2

[7] = tested on: broad-leaved weeds, e.g., monochoria, false pimpernel and toothcup; assay: Water application, herbicidal effect on broad-leaved weeds (Table 2); parameters: key: 0: not damaged; 5: completely killed; settings: 25 days, score 0-5
How it was run: as §1

[8] = tested on: broad-leaved weeds, e.g., monochoria, false pimpernel and toothcup; assay: as above; parameters: key: 0: no effect; 1: very slightly affected; 2: slightly affected; 3: moderately affected; 4: considerably affected; 5: completely killed; settings: 10 g/a, 25 days, score 0-5
Description: Wagner pots of 14 cm. in diameter, which had been packed with 1.5 kg. of paddy field soil, were brought into the state of paddy fields. To the pots were transplanted rice seedlings at the 3-leave stage. Further, seeds of barnyard grass (Echinochloa crus-galli) were sowed in the pots and required amounts of test compounds were applied to the soil under water lodged condition. 25 days after application, the degrees of herbicidal activity and phytotoxity were investigated on above-mentioned plants which had been transplanted and sowed, and on broad-leaved weeds, e.g., monochoria (Monochoria viaginalis Presl.), false pimpernel (Linderna pyxidaria) and toothcup (Rotala indica Koehue), which had been spontaneously germinated. The test compounds were used in the form of wettable powder. The herbicidal effects and the phytotoxity were evaluated as follows by the numerals ranging from 0 to 5.

Row | Compound | Herbicidal effects, barnyard grass ([1]; 10 g/a) | Herbicidal effects, barnyard grass ([1]; 20 g/a) | Herbicidal effects, barnyard grass ([1]; 40 g/a) | Herbicidal effect, redroot pigweed ([2]; 10 g./a.) | Herbicidal effect, redroot pigweed ([2]; 20 g./a.) | Herbicidal effect, redroot pigweed ([2]; 40 g./a.) | Herbicidal effect, large crabgrass ([3]; 10 g./a.) | Herbicidal effect, large crabgrass ([3]; 20 g./a.) | Herbicidal effect, large crabgrass ([3]; 40 g./a.) | Herbicidal effect, barnyard grass ([4]; 10 g./a.) | Herbicidal effect, barnyard grass ([4]; 20 g./a.) | Herbicidal effect, barnyard grass ([4]; 40 g./a.) | Phytotoxicity on rice (rice; 10 g/a) | Phytotoxicity on rice (rice; 20 g/a) | Phytotoxicity on rice (rice; 40 g/a) | Herbicidal effect, common lambsquarter ([5]; 10 g./a.) | Herbicidal effect, common lambsquarter ([5]; 20 g./a.) | Herbicidal effect, common lambsquarter ([5]; 40 g./a.) | Herbicidal effect, common purslane ([6]; 10 g./a.) | Herbicidal effect, common purslane ([6]; 20 g./a.) | other results
1 | CCOP(=O)(SCC(=O)N1CCCCC1C)SCc1ccc(C)cc1 (stereo not drawn) [Compound 52] | 5 | 5 | 5 | 4 | 4 | 5 | 5 | 5 | 5 | 5 | 5 | 5 | 0 | 0 | 0 | 3 | 4 | 5 | 3 | 4 | Mortality (nematode): 85.7%; Herbicidal effect, common purslane ([6]; 40 g./a.): 5; Herbicidal effect, radish (radish; 10 g./a.): 0; Herbicidal effect, radish (radish; 20 g./a.): 0; Herbicidal effect, radish (radish; 40 g./a.): 0; Herbicidal effects, broad-leaved weeds ([7]; 10 g/a): 5; Herbicidal effects, broad-leaved weeds ([7]; 20 g/a): 5; Herbicidal effects, broad-leaved weeds ([7]; 40 g/a): 5
2 | CCCOP(=O)(SCCc1ccccc1)SCC(=O)N1CCCCC1CC (stereo not drawn) [Compound 19] | 5 | 5 | 5 | 4 | 4 | 4 | 4 | 4 | 5 | 4 | 4 | 5 | 0 | 0 | 0 | 3 | 4 | 4 | 4 | 4 | Herbicidal effects, broad-leaved weeds [8]: 4; Herbicidal effect, common purslane ([6]; 40 g./a.): 4; Herbicidal effect, radish (radish; 10 g./a.): 0; Herbicidal effect, radish (radish; 20 g./a.): 0; Herbicidal effect, radish (radish; 40 g./a.): 0; Herbicidal effects, broad-leaved weeds ([7]; 20 g/a): 5; Herbicidal effects, broad-leaved weeds ([7]; 40 g/a): 5
3 | CCCCCCCCSP(=O)(OCC)SCC(=O)N1CCCCC1C (stereo not drawn) [Compound 8] | 5 | 5 | 5 | 3 | 4 | 4 | 4 | 4 | 5 | 4 | 4 | 5 | 0 | 0 | 0 | 3 | 4 | 4 | 4 | 4 | Herbicidal effects, broad-leaved weeds [8]: 4; Herbicidal effect, common purslane ([6]; 40 g./a.): 4; Herbicidal effect, radish (radish; 10 g./a.): 0; Herbicidal effect, radish (radish; 20 g./a.): 0; Herbicidal effect, radish (radish; 40 g./a.): 0; Herbicidal effects, broad-leaved weeds ([7]; 20 g/a): 5; Herbicidal effects, broad-leaved weeds ([7]; 40 g/a): 5
4 | CCCSP(=O)(OCC)SCC(=O)N1CCC(C)CC1 (stereo not drawn) [Compound 12] | 5 | 5 | 5 | 4 | 5 | 5 | 5 | 5 | 5 | 5 | 5 | 5 | 0 | 0 | 0 | 5 | 5 | 5 | 5 | 5 | Mortality (nematode): 100%; Herbicidal effect, common purslane ([6]; 40 g./a.): 5; Herbicidal effect, radish (radish; 10 g./a.): 0; Herbicidal effect, radish (radish; 20 g./a.): 0; Herbicidal effect, radish (radish; 40 g./a.): 0; Herbicidal effects, broad-leaved weeds ([7]; 10 g/a): 5; Herbicidal effects, broad-leaved weeds ([7]; 20 g/a): 5; Herbicidal effects, broad-leaved weeds ([7]; 40 g/a): 5
5 | CCOP(=O)(SCC(=O)N1CCCCC1C)SC1CCCCC1 (stereo not drawn) [Compound 10] | 5 | 5 | 5 | 3 | 4 | 4 | 4 | 4 | 5 | 4 | 4 | 5 | 0 | 0 | 0 | 3 | 4 | 4 | 3 | 4 | Mortality (nematode): 100%; Herbicidal effects, broad-leaved weeds [8]: 4; Herbicidal effect, common purslane ([6]; 40 g./a.): 4; Herbicidal effect, radish (radish; 10 g./a.): 0; Herbicidal effect, radish (radish; 20 g./a.): 0; Herbicidal effect, radish (radish; 40 g./a.): 0; Herbicidal effects, broad-leaved weeds ([7]; 20 g/a): 5; Herbicidal effects, broad-leaved weeds ([7]; 40 g/a): 5
6 | CCCCSP(=O)(OCCC)SCC(=O)N1CCCCC1C (stereo not drawn) [Compound 17] | 5 | 5 | 5 | 3 | 4 | 4 | 4 | 5 | 5 | 4 | 4 | 5 | 0 | 0 | 0 | 4 | 4 | 5 | 3 | 4 | Herbicidal effects, broad-leaved weeds [8]: 4; Herbicidal effect, common purslane ([6]; 40 g./a.): 4; Herbicidal effect, radish (radish; 10 g./a.): 0; Herbicidal effect, radish (radish; 20 g./a.): 0; Herbicidal effect, radish (radish; 40 g./a.): 0; Herbicidal effects, broad-leaved weeds ([7]; 20 g/a): 5; Herbicidal effects, broad-leaved weeds ([7]; 40 g/a): 5
7 | CCCOP(=O)(SCC(=O)N1CCCCC1C)SC(C)C (stereo not drawn) [Compound 36] | 5 | 5 | 5 | 3 | 4 | 4 | 4 | 4 | 5 | 4 | 4 | 5 | 0 | 0 | 0 | 4 | 4 | 5 | 3 | 4 | Herbicidal effects, broad-leaved weeds [8]: 4; Herbicidal effect, common purslane ([6]; 40 g./a.): 4; Herbicidal effect, radish (radish; 10 g./a.): 0; Herbicidal effect, radish (radish; 20 g./a.): 0; Herbicidal effect, radish (radish; 40 g./a.): 0; Herbicidal effects, broad-leaved weeds ([7]; 20 g/a): 5; Herbicidal effects, broad-leaved weeds ([7]; 40 g/a): 5
